Assay results as given in patent US20030012820A1, “Compressible guaifenesin compositions, method for making same and method for making compressed guaifenesin dosage forms therefrom” (priority 2001, published 2003).

Experiment: Particle size distribution by sieve analysis
Assay type: physicochemical
Conditions: US Mesh 20 (850 μm)
From the text: USP grade guaifenesin powders GP-A, GP-B, GP-C and GP-D having the respective particle size distributions set forth below, were used in the examples. Guaifenesin powder GP-A was made by Rhodia Inc., guaifenesin powders GP-B, GP-C and GP-D were obtained from other commercial sources. In the tables below, the result “% R” for a sample means the amount of sample retained on the corresponding screen size set forth in the table, expressed as a percent by weight of the total sample amount, and the result “% CR” for a sample means the cumulative amount of the sample retained on all screen sizes larger than the corresponding screen size, expressed as a percent by weight of the total sample amount.
(§1) The particle size distribution, bulk density, moisture content and flow properties were measured for each of the compositions of Examples 1-10 and for Comparison Examples C1-C4. Comparison Examples C1-C4 were commercially available directly compressible guaifenesin compositions. Particle size distribution was measured by sieve analysis using screens of the indicated mesh sizes. Bulk density was measured using a VanKel cylinder. Moisture content was measured by Karl Fischer titration. Flow properties were measured using a VanKel flowmeter with a strip chart recorder. […] Results are given below in TABLES 1A, 1B and 1C

SMILES | % CR (cumulative amount retained) | % R (amount retained on screen)
COc1ccccc1OCC(O)CO (single isomer, unassigned) [GP-A, guaifenesin] | 0% | 0%
COc1ccccc1OCC(O)CO (single isomer, unassigned) [GP-B, guaifenesin] | 0% | 0%
COc1ccccc1OCC(O)CO (single isomer, unassigned) [GP-C, guaifenesin] | 0% | 0%
COc1ccccc1OCC(O)CO (single isomer, unassigned) [GP-D, guaifenesin] | 0% | 0%

Same assay, conditions: US Mesh 40 (425 μm)

SMILES | % CR (cumulative amount retained) | % R (amount retained on screen)
COc1ccccc1OCC(O)CO (single isomer, unassigned) [GP-A, guaifenesin] | 0% | 0%
COc1ccccc1OCC(O)CO (single isomer, unassigned) [GP-B, guaifenesin] | 0.4% | 0.4%
COc1ccccc1OCC(O)CO (single isomer, unassigned) [GP-C, guaifenesin] | 2.0% | 2.0%
COc1ccccc1OCC(O)CO (single isomer, unassigned) [GP-D, guaifenesin] | 0% | 0%

Same assay, conditions: US Mesh 60 (250 μm)

SMILES | % CR (cumulative amount retained) | % R (amount retained on screen)
COc1ccccc1OCC(O)CO (single isomer, unassigned) [GP-A, guaifenesin] | 0.8% | 0.8%
COc1ccccc1OCC(O)CO (single isomer, unassigned) [GP-B, guaifenesin] | 0.4% | 0%
COc1ccccc1OCC(O)CO (single isomer, unassigned) [GP-C, guaifenesin] | 3.2% | 1.2%
COc1ccccc1OCC(O)CO (single isomer, unassigned) [GP-D, guaifenesin] | 0% | 0%

Same assay, conditions: US Mesh 80 (180 μm)

SMILES | % CR (cumulative amount retained) | % R (amount retained on screen)
COc1ccccc1OCC(O)CO (single isomer, unassigned) [GP-A, guaifenesin] | 3.2% | 2.4%
COc1ccccc1OCC(O)CO (single isomer, unassigned) [GP-B, guaifenesin] | 2.4% | 2.0%
COc1ccccc1OCC(O)CO (single isomer, unassigned) [GP-C, guaifenesin] | 3.2% | 0%
COc1ccccc1OCC(O)CO (single isomer, unassigned) [GP-D, guaifenesin] | 3.2% | 3.2%

Same assay, conditions: US Mesh 100 (150 μm)

SMILES | % CR (cumulative amount retained) | % R (amount retained on screen)
COc1ccccc1OCC(O)CO (single isomer, unassigned) [GP-A, guaifenesin] | 7.6% | 4.4%
COc1ccccc1OCC(O)CO (single isomer, unassigned) [GP-B, guaifenesin] | 3.2% | 0.8%
COc1ccccc1OCC(O)CO (single isomer, unassigned) [GP-C, guaifenesin] | 4.0% | 0.8%
COc1ccccc1OCC(O)CO (single isomer, unassigned) [GP-D, guaifenesin] | 9.6% | 6.4%

Same assay, conditions: US Mesh 200 (75 μm)

SMILES | % CR (cumulative amount retained) | % R (amount retained on screen)
COc1ccccc1OCC(O)CO (single isomer, unassigned) [GP-A, guaifenesin] | 38.4% | 30.8%
COc1ccccc1OCC(O)CO (single isomer, unassigned) [GP-B, guaifenesin] | 11.2% | 8.0%
COc1ccccc1OCC(O)CO (single isomer, unassigned) [GP-C, guaifenesin] | 11.2% | 7.2%
COc1ccccc1OCC(O)CO (single isomer, unassigned) [GP-D, guaifenesin] | 60.0% | 50.4%

Same assay, conditions: US Mesh 325 (45 μm)

SMILES | % CR (cumulative amount retained) | % R (amount retained on screen)
COc1ccccc1OCC(O)CO (single isomer, unassigned) [GP-A, guaifenesin] | 76.8% | 38.4%
COc1ccccc1OCC(O)CO (single isomer, unassigned) [GP-B, guaifenesin] | 58.0% | 46.8%
COc1ccccc1OCC(O)CO (single isomer, unassigned) [GP-C, guaifenesin] | 77.6% | 66.4%
COc1ccccc1OCC(O)CO (single isomer, unassigned) [GP-D, guaifenesin] | 89.6% | 29.6%

Same assay, conditions: pan (<45 μm)

SMILES | % CR (cumulative amount retained) | % R (amount retained)
COc1ccccc1OCC(O)CO (single isomer, unassigned) [GP-A, guaifenesin] | 100% | 23.2%
COc1ccccc1OCC(O)CO (single isomer, unassigned) [GP-B, guaifenesin] | 100% | 42.0%
COc1ccccc1OCC(O)CO (single isomer, unassigned) [GP-C, guaifenesin] | 100% | 22.4%
COc1ccccc1OCC(O)CO (single isomer, unassigned) [GP-D, guaifenesin] | 100% | 10.4%

Experiment: Bulk density, VanKel cylinder
Assay type: physicochemical
Conditions: not given
Description: as §1

SMILES | Bulk Density
COc1ccccc1OCC(O)CO (single isomer, unassigned) [GP-A, guaifenesin] | 0.45 g/cc
COc1ccccc1OCC(O)CO (single isomer, unassigned) [GP-B, guaifenesin] | 0.41 g/cc
COc1ccccc1OCC(O)CO (single isomer, unassigned) [GP-C, guaifenesin] | 0.35 g/cc
COc1ccccc1OCC(O)CO (single isomer, unassigned) [GP-D, guaifenesin] | 0.40 g/cc
